From patent US20250326748A1, “COMPOUNDS AND METHODS FOR MODULATING SPLICING” (REMIX THERAPEUTICS INC., priority 2022, published 2025)
pIC50: −log10 of the molar value. Structures can show the parent of a compound that is named as a salt. Where two headings read alike, the source gives them in different places.

Experiments:
K562 cells = test: Cell viability, Cell Titer Glo 2.0 assay, K562; settings: 72 hours
HiBiT-tagged HTT protein = test: HiBiT protein abundance assay, HTT (K562 HiBiT knock-in); type: cell-based, human; settings: HiBiT knock-in cells, 24 hours
Outline: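 Endogenously HiBiT-tagged K562 knock-in lines treated 24 h at 37 °C with 10-point 3-fold dilutions (top 10 μM final, DMSO ≤0.25%) in IMDM+1% FBS. Lytic Nano-Glo luminescence normalized to DMSO and unmodified K562 controls; four-parameter fit gives 50%-abundance concentration (IC50).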

Target C = test: HiBiT protein abundance assay, Target C (K562 HiBiT knock-in); type: cell-based, human; settings: HiBiT knock-in cells, 24 hours
Outline: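 K562 HiBiT knock-in cells (10000/well) in IMDM + 1% FBS were treated for 24 h at 37° C. with a 10-point 3-fold dilution series (top 10 μM final), with DMSO ≤0.25%. Unmodified K562 served as baseline. HiBiT lytic luminescence was normalized to controls, and IC50 was interpolated at 50% from a four-parameter fit.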

HTT mRNA = test: Splicing RT-qPCR assay, HTT canonical (CJ) and alternative (AJ) junction mRNA; type: cell-based, human; settings: Homo sapiens; for pIC50: canonical junction mRNA; for AC50: alternative junction mRNA, read-out: HTT AJ (AC50, increase in AJ mRNA)
Outline: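 A673 cells (DMEM, 10% FBS) or K562 cells (IMDM, 10% FBS) were treated for 24 h at 37° C with an 11-point 3-fold dilution series, top dose 10 uM, DMSO ≤0.25%. Canonical and alternative junction mRNA was measured in lysates by one-step RT-qPCR. Normalization used PPIA for A673 and GAPDH or GUSB for K562.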

[1] = 24 h, RT-qPCR, A673 or K562 cells, 24 hours treatment, read-out: HTT CJ (IC50, decrease in CJ mRNA)
[2] = qPCR panel, read-out: HTT CJ (decrease in CJ mRNA levels, IC50)
[3] = RT-qPCR, A673 or K562 cells, 24 hours treatment

| Structure (SMILES) | Effect on Cell Viability, K562 (K562 cells) | pIC50 (HiBiT-tagged HTT protein) | pIC50 (Target C) | pIC50 (HTT mRNA; [1]) | pIC50 (HTT mRNA; [2]) | AC50 (HTT mRNA; [3]) |
| --- | --- | --- | --- | --- | --- | --- |
| Cn1cc2cc(-c3cnc4cc(N5CCC(NC6CC6)C5)ccc4n3)c(O)c(F)c2n1 (stereo not drawn) [Compound 175, 5-[6-[3-(cyclopropylamino)pyrrolidin-1-yl]quinoxalin-2-yl]-7-fluoro-2-methyl-indazol-6-ol] | A (<100 nM) | > 7.00 | 6.00 to 7.00 | > 7.00 | > 7.00 | < 0.1 µM |
| Cc1c(O)c(-c2ncc3cc(N4CC[C@H](N)C4)cnc3n2)cc2cn(C)nc12 [Compound 160, (S)-5-(6-(3-aminopyrrolidin-1-yl)pyrido[2,3-d]pyrimidin-2-yl)-2,7-dimethyl-2H-indazol-6-ol 2,2,2-trifluoroacetate] | B (100-1000 nM) | > 7.00 | 6.00 to 7.00 | 6.00 to 7.00 | 6.00 to 7.00 | 0.1 to 1 µM |
| Cn1cc2cc(-c3cc(Cl)c4cc(N5CCNC(C6CC6)C5)cnc4n3)cc(F)c2n1 (stereo not drawn) [Compound 209, 4-chloro-6-(3-cyclopropylpiperazin-1-yl)-2-(7-fluoro-2-methylindazol-5-yl)-1,8-naphthyridine] | B (100-1000 nM) | 6.00 to 7.00 | 5.00 to 6.00 | 5.00 to 6.00 | 5.00 to 6.00 | 1 to 10 µM |
| Cc1c(O)c(-c2ccc3nc(N4CCNCC4)cnc3n2)cc2cn(C)nc12 [Compound 197, 2,7-dimethyl-5-[2-(piperazin-1-yl)pyrido[2,3-b]pyrazin-6-yl]indazol-6-ol] | B (100-1000 nM) | 6.00 to 7.00 | 6.00 to 7.00 | 6.00 to 7.00 | 6.00 to 7.00 | 0.1 to 1 µM |
| Cn1cc2cc(-c3cnc4cc(N5CC[C@@H](NC6CC6)C5)ccc4n3)c(O)c(F)c2n1 [Compound 177, 5-[6-[(3R)-3-(cyclopropylamino)318quinoxaline-1-yl]318quinoxaline-2-yl]-7-fluoro-2-methyl-indazol-6-ol] | A (<100 nM) | > 7.00 | > 7.00 | > 7.00 | > 7.00 | < 0.1 µM |
| Cc1c(O)c(-c2ccc3nc(N4C[C@@H](C)N[C@@H](C)C4)cnc3n2)cc2cn(C)nc12 [Compound 195, 5-{2-[(3R,5S)-3,5-dimethylpiperazin-1-yl]pyrido[2,3-b]pyrazin-6-yl}-2,7-dimethylindazol-6-ol] | B (100-1000 nM) | 5.00 to 6.00 | 5.00 to 6.00 | 5.00 to 6.00 | 5.00 to 6.00 | > 10 µM |
| CN(C)[C@@H]1CCN(c2cnc3nc(-c4cc5cn(C)nc5c(F)c4O)cc(Cl)c3c2)C1 [Compound 220] | A (<100 nM) | > 7.00 | 6.00 to 7.00 | > 7.00 | > 7.00 | 0.1 to 1 µM |
| CNC1CCN(c2cnc3nc(-c4cc(F)c5nc(C)cn5c4)ccc3c2)C1 (stereo not drawn) [Compound 100, 1-(7-{8-fluoro-2-methylimidazo[1,2-a]pyridin-6-yl}-1,8-naphthyridin-3-yl)-N-methylpyrrolidin-3-amine] | B (100-1000 nM) | 6.00 to 7.00 | 6.00 to 7.00 | 6.00 to 7.00 | 6.00 to 7.00 | 0.1 to 1 µM |
| Cc1cn2cc(-c3cnc4nc(C5CCNCC5)ccc4c3)cc(C)c2n1 [Compound 201] | C (1000-9999 nM) | < 5.00 | < 5.00 | < 5.00 | > 7.00 | > 10 µM |
| Cn1cc2cc(-c3cc(Cl)c4cc(N5CCNCC5)cnc4n3)c(O)c(F)c2n1 [Compound 155, 5-[4-chloro-6-(piperazin-1-yl)-1,8-naphthyridin-2-yl]-7-fluoro-2-methylindazol-6-ol] | A (<100 nM) | > 7.00 | 6.00 to 7.00 | > 7.00 | > 7.00 | < 0.1 µM |
| Cc1c(O)c(-c2ncc3cc(N4C[C@@H](C)N[C@@H](C)C4)cnc3n2)cc2cn(C)nc12 [Compound 214] | B (100-1000 nM) | 6.00 to 7.00 | 5.00 to 6.00 | 6.00 to 7.00 | 6.00 to 7.00 | 1 to 10 µM |
| Cc1c(O)c(-c2cc(-c3ccccn3)c3cc(N4C[C@@H](C)N[C@@H](C)C4)cnc3n2)cc2cn(C)nc12 [Compound 217, 5-{6-[(3R,5S)-3,5-dimethylpiperazin-1-yl]-4-(pyridin-2-yl)-1,8-naphthyridin-2-yl}-2,7-dimethylindazol-6-ol] | C (1000-9999 nM) | 5.00 to 6.00 | 5.00 to 6.00 | < 5.00 | < 5.00 | > 10 µM |
| CN[C@@H]1CCN(c2cnc3nc(-c4cc5cn(C)nc5c(C)c4O)nc(OC)c3c2)C1 [Compound 211, 5-{4-methoxy-6-[(3R)-3-(methylamino)pyrrolidin-1-yl]pyrido[2,3-d]pyrimidin-2-yl}-2,7-dimethylindazol-6-ol] | A (<100 nM) | > 7.00 | > 7.00 | > 7.00 | > 7.00 | < 0.1 µM |
| CN(C)[C@H]1CCN(c2cnc3nc(-c4cc5cn(C)nc5c(F)c4O)cc(Cl)c3c2)C1 [Compound 221] | A (<100 nM) | > 7.00 | 6.00 to 7.00 | > 7.00 | > 7.00 | 0.1 to 1 µM |
| C[C@@H]1CN(c2cnc3nc(-c4cc5cn(C)nc5cc4O)cc(Cl)c3c2)C[C@H](C)N1 [Compound 208] | B (100-1000 nM) | 6.00 to 7.00 | 5.00 to 6.00 | 5.00 to 6.00 | 5.00 to 6.00 | 1 to 10 µM |
| Cc1c(O)c(-c2cc(Cl)c3cc(N4CCNCC4)cnc3n2)cc2cn(C)nc12 [Compound 154, 5-[4-chloro-6-(piperazin-1-yl)-1,8-naphthyridin-2-yl]-2,7-dimethylindazol-6-ol] | A (<100 nM) | 6.00 to 7.00 | 6.00 to 7.00 | 6.00 to 7.00 | 6.00 to 7.00 | 0.1 to 1 µM |
| C[C@@H]1CN(c2cnc3nc(-c4cc5cn(C)nc5c(F)c4O)cc(C#N)c3c2)C[C@H](C)N1 [Compound 266, 6-[(3R,5S)-3,5-dimethylpiperazin-1-yl]-2-(7-fluoro-6-hydroxy-2-methylindazol-5-yl)-1,8-naphthyridine-4-carbonitrile hydrochloride] | A (<100 nM) | 6.00 to 7.00 | 5.00 to 6.00 | 6.00 to 7.00 | 6.00 to 7.00 | 1 to 10 µM |
| CNC1CCN(c2cnc3nc(-c4cc5cn(C)nc5cc4O)cc(Cl)c3c2)C1 (stereo not drawn) [Compound 213, 5-{4-chloro-6-[3-(methylamino)370pyrrolidine-1-yl]-1,8-naphthyridin-2-yl}-2-methylindazol-6-ol] | B (100-1000 nM) | 6.00 to 7.00 | 6.00 to 7.00 | 6.00 to 7.00 | 6.00 to 7.00 | 0.1 to 1 µM |
| COc1nc(-c2cc3cn(C)nc3c(F)c2O)nc2ncc(N3C[C@@H](C)N[C@@H](C)C3)cc12 [Compound 218] | A (<100 nM) | > 7.00 | 6.00 to 7.00 | > 7.00 | > 7.00 | 0.1 to 1 µM |
| COc1nc(-c2cc3cn(C)nc3c(F)c2O)nc2ncc(N3CCC(N(C)C)CC3)cc12 [Compound 219, 5-{6-[4-(dimethylamino)piperidin-1-yl]-4-methoxypyrido[2,3-d]pyrimidin-2-yl}-7-fluoro-2-methylindazol-6-ol] | A (<100 nM) | > 7.00 | 6.00 to 7.00 | > 7.00 | > 7.00 | 0.1 to 1 µM |
| Cc1c(O)c(-c2cc(-c3nnc[nH]3)c3cc(N4C[C@@H](C)N[C@@H](C)C4)cnc3n2)cc2cn(C)nc12 [Compound 261, 5-{6-[(3R,5S)-3,5-dimethylpiperazin-1-yl]-4-(4H-1,2,4-triazol-3-yl)-1,8-naphthyridin-2-yl}-2,7-dimethylindazol-6-ol] | D (greater than 10 μM) | < 5.00 | 5.00 to 6.00 | < 5.00 | > 7.00 | > 10 µM |
| C[C@@H]1CN(c2cnc3nc(-c4cc5cn(C)nc5c(F)c4O)ccc3c2)C[C@H](C)N1 [Compound 206] | A (<100 nM) | > 7.00 | 6.00 to 7.00 | > 7.00 | > 7.00 | 0.1 to 1 µM |
| Cn1cc2cc(-c3cnc4nc(N5CCNCC5)cc(Cl)c4c3)cc(F)c2n1 [Compound 101, 4-chloro-6-(7-fluoro-2-methyl-2H-indazol-5-yl)-2-(piperazin-1-yl)-1,8-naphthyridine] | B (100-1000 nM) | 5.00 to 6.00 | 5.00 to 6.00 | 5.00 to 6.00 | 5.00 to 6.00 | 1 to 10 µM |
